# Data published in patent US10065990B2, “Cyclic peptide compound, and preparation method, pharmaceutical composition and use thereof” (HANGZHOU GUANYU BIO-MEDICAL CO., LTD, priority 2013, dated 2018).
# Where two headings read alike, the source gives them in different places.
# Columns and labels:
# [1] = test system: SGC-7901 (human gastric cancer cells); assay: MTT cancer cell growth inhibition; type: cell-based; conditions: Homo sapiens, SGC-7901, 72 h, MTT, 72 hours incubation, SGC-7901 cells; read-out: GI50 SGC-7901
# From the text: (§1) MTT assay principle is yellow MTT can penetrate membrane into the cell, succinic dehydrogenase of the mitochondria in living cells can make exogenous MTT reduction of insoluble in water of blue-violet acicular formazan for crystallization and deposition in the cell, crystallization can be dissolved dimethyl sulfoxide (DMSO) solution, detected its absorbance at 490 nm/570 nm wavelength by enzyme-linked immunosorbent assay, which can reflect the number of cells.
# (§2) Using DMEM+10% FBS culture medium or using 1640+10% FBS culture, respectively.
# (§3) a) Cells were seeded in 96-well plates with the inoculation of 1500/well, 190 μl/hole, 37° C., 5% of CO2 incubator overnight;
# (§4) b) The next day each well was added 10 μl of different drugs. The final concentration of drug was 10^−5˜10^−10M, three parallel holes; 37° C., 5% CO2 culture incubator for 72 hours incubation;
# (§5) c) Per well was added 20 μl 5 mg/ml of MTT, 37° C., 5% CO2 culture incubator for 4 hours incubation;
# (§6) d) The supernatant was discarded. Each well was added 100 μl of DMSO and oscillation;
# (§7) e) 570 nm readings. Calculate cell viability. GI50 calculation based on the results.
# [2] = test system: MDA-MB-231 (breast cancer cells); assay: MTT cancer cell growth inhibition; type: cell-based; conditions: Homo sapiens, MDA-MB-231, 72 h, read-out: GI50 MDA-MB-231, MTT, 72 hours incubation, MDA-MB-231 cells
# From the text: as §1, §2, §3, §4, §5, §6, §7
# [3] = test system: Bel-7402 (human hepatoma cells); assay: MTT cancer cell growth inhibition; type: cell-based; conditions: Homo sapiens, Bel-7402, 72 h, MTT, 72 hours incubation, Bel-7402 cells; read-out: GI50 Bel-7402
# From the text: as §1, §2, §3, §4, §5, §6, §7
# [4] = test system: lncap (prostate cancer cells); assay: MTT cancer cell growth inhibition; type: cell-based; conditions: Homo sapiens, LNCaP, 72 h, MTT, 72 hours incubation, read-out: GI50 lnca
# From the text: as §1, §2, §3, §4, §5, §6, §7
# [5] = test system: H1975 (non-small cell lung adenocarcinoma); assay: MTT cancer cell growth inhibition; type: cell-based; conditions: Homo sapiens, NCI-H1975, 72 h, MTT, 72 hours incubation, H1975 cells; read-out: GI50 H1975
# From the text: as §1, §2, §3, §4, §5, §6, §7
# [6] = test system: MOLT-4 (human acute lymphoblastic leukemia cells); assay: MTT cancer cell growth inhibition; type: cell-based; conditions: Homo sapiens, MOLT-4, 72 h, MTT, 72 hours incubation, read-out: GI50 Mol
# From the text: as §1, §2, §3, §4, §5, §6, §7
# [7] = test system: A549 (human lung cancer cells); assay: MTT cancer cell growth inhibition; type: cell-based; conditions: Homo sapiens, A549, 72 h, MTT, 72 hours incubation, read-out: GI50 A54
# From the text: as §1, §2, §3, §4, §5, §6, §7
# [8] = test system: HT1080 (human fibrosarcoma cells); assay: MTT cancer cell growth inhibition; type: cell-based; conditions: Homo sapiens, HT-1080, 72 h, MTT, 72 hours incubation, read-out: GI50 HT1
# From the text: as §1, §2, §3, §4, §5, §6, §7
# [9] = test system: HCC827 (human non-small cell lung cancer cells); assay: MTT cancer cell growth inhibition; type: cell-based; conditions: Homo sapiens, HCC827, 72 h, MTT, 72 hours incubation, HCC827 cells; read-out: GI50 HCC827
# From the text: as §1, §2, §3, §4, §5, §6, §7
# [10] = test system: KBM5-T315I (human chronic myelogenous leukemia); assay: MTT cancer cell growth inhibition; type: cell-based; conditions: Homo sapiens, 72 h, MTT, 72 hours incubation, KBM5-T315I cells; read-out: GI50 KBM5-T315I
# From the text: as §1, §2, §3, §4, §5, §6, §7
# [11] = test system: DU145 (human prostate cancer cells); assay: MTT cancer cell growth inhibition; type: cell-based; conditions: Homo sapiens, DU-145, 72 h, MTT, 72 hours incubation, read-out: GI50 Du1
# From the text: as §1, §2, §3, §4, §5, §6, §7
# [12] = test system: BGC-823 (human gastric cancer cells); assay: MTT cancer cell growth inhibition; type: cell-based; conditions: Homo sapiens, BGC-823, 72 h, MTT, 72 hours incubation, read-out: GI50 BG
# From the text: as §1, §2, §3, §4, §5, §6, §7
# [13] = test system: K562 (human leukemia cells); assay: MTT cancer cell growth inhibition; type: cell-based; conditions: Homo sapiens, K562, 72 h, MTT, 72 hours incubation, K562 cells; read-out: GI50 K562
# From the text: as §1, §2, §3, §4, §5, §6, §7
# [14] = test system: MCF-7 (human breast cancer cells); assay: MTT cancer cell growth inhibition; type: cell-based; conditions: Homo sapiens, MCF7, 72 h, 72 hours incubation, read-out: GI50 MCF
# From the text: as §1, §2, §3, §4, §5, §6, §7
# [15] = test system: Huh-7 (human hepatoma cells); assay: MTT cancer cell growth inhibition; type: cell-based; conditions: Homo sapiens, Huh-7, 72 h, MTT, 72 hours incubation, Huh-7 cells; read-out: GI50 Huh-7
# From the text: as §1, §2, §3, §4, §5, §6, §7
# [16] = test system: Hela (human cervical cancer cells); assay: MTT cancer cell growth inhibition; type: cell-based; conditions: Homo sapiens, HeLa, 72 h, MTT, 72 hours incubation, read-out: GI50 Hela
# From the text: as §1, §2, §3, §4, §5, §6, §7
# [17] = test system: KBM-5 (human chronic myelogenous leukemia); assay: MTT cancer cell growth inhibition; type: cell-based; conditions: Homo sapiens, KBM5, 72 h, MTT, 72 hours incubation, KBM-5 cells; read-out: GI50 KBM-5
# From the text: as §1, §2, §3, §4, §5, §6, §7
# [18] = test system: U937 (human leukemia cells); assay: MTT cancer cell growth inhibition; type: cell-based; conditions: Homo sapiens, U-937, 72 h, MTT, 72 hours incubation, read-out: GI50 U93
# From the text: as §1, §2, §3, §4, §5, §6, §7
# [19] = test system: N-87 (human gastric cancer cells); assay: MTT cancer cell growth inhibition; type: cell-based; conditions: Homo sapiens, 72 h, MTT, 72 hours incubation, N-87 cells; read-out: GI50 N-87
# From the text: as §1, §2, §3, §4, §5, §6, §7
# [20] = test system: PANC-1 (Pac-1, human pancreatic cancer cells); assay: MTT cancer cell growth inhibition; type: cell-based; conditions: Homo sapiens, PANC-1, 72 h, MTT, 72 hours incubation, read-out: GI50 PAN
# From the text: as §1, §2, §3, §4, §5, §6, §7
# HDAC7 = target: T1, HDAC7 (Homo sapiens, UniProt Q8WUI4); assay: HDAC biochemical activity measurement (fluorescent substrate deacetylation);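 further: fluorogenic deacetylation assay using acetyl-lysine substrate at 20 µM, enzyme and compound incubated 30 min at 37 °C, then developer added, fluorescence read at 360/460 nm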; conditions: HDAC7; 37° C. 30 minutes
# T1 sequence (Q8WUI4 1-952): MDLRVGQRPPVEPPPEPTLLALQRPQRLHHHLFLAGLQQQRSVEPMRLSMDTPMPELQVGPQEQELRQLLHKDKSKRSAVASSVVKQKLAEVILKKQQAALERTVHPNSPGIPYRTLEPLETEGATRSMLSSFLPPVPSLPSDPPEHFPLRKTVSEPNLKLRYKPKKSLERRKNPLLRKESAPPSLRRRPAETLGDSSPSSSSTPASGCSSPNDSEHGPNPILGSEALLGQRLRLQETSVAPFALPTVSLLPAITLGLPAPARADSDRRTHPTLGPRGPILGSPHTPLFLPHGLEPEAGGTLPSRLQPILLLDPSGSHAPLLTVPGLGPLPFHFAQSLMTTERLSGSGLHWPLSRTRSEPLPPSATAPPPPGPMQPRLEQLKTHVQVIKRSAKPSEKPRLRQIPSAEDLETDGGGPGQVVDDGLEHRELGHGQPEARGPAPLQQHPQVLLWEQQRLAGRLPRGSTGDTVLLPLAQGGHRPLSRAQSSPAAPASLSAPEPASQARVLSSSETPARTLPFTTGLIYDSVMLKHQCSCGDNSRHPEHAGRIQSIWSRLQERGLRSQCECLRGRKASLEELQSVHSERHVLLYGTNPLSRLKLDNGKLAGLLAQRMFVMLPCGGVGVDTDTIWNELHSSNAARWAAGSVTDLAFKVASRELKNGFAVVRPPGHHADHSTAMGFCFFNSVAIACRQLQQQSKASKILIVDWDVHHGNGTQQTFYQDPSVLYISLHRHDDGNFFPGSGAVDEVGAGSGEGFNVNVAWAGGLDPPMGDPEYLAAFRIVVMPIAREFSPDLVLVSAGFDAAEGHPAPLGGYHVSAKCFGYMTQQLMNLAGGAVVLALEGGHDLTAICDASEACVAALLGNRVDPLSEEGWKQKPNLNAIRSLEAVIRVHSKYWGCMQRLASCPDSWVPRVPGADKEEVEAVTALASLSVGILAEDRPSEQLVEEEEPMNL
Compound,GI50 [1] [nM],GI50 [2] [nM],GI50 [3] [nM],GI50 [5] [nM],GI50 [9] [nM],GI50 [10] [nM],GI50 [13] [nM],GI50 [15] [nM],GI50 [17] [nM],GI50 [19] [nM],IC50 HDAC7 (HDAC7),further results
C/C=C1\NC(=O)c2ccc(F)c(n2)CNC(=O)C[C@@H](/C=C/CCS)OC(=O)[C@H](CC)NC1=O [Compound 111],73,38,36,27,57,35,37,38,53,28,no activity,GI50 [4]: 20 nM; GI50 [6]: 20 nM; GI50 [7]: 50 nM; GI50 [8]: 80 nM; GI50 [11]: 60 nM; GI50 [12]: 30 nM; GI50 [14]: 20 nM; GI50 [16]: 80 nM; GI50 [18]: 50 nM; GI50 [20]: 80 nM
C/C=C1\NC(=O)c2cc(SC)cc(n2)CNC(=O)C[C@@H](/C=C/CCSC(=O)CCCCCCC)OC(=O)[C@H](Cc2ccccc2)NC1=O [Compound 190],86,67,28,23,56,17,63,75,57,48,no activity,GI50 ([4]; lncap cells): 30 nM; GI50 ([6]; MOLT-4 cells): 70 nM; GI50 ([7]; A549 cells): 20 nM; GI50 ([8]; HT1080 cells): 20 nM; GI50 ([11]; DU145 cells): 20 nM; GI50 ([12]; BGC-823 cells): 50 nM; GI50 ([14]; MCF-7 cells): 30 nM; GI50 ([16]; Hela cells): 60 nM; GI50 ([18]; U937 cells): 50 nM; GI50 ([20]; PANC-1 cells): 60 nM
